Results as given in PubChem BioAssay AID1963986 (Molecular Pharmacology Branch, DTP, NCI, 2024).
Each block holds one compound with its values, some of them ahead of it.

Test system: 171881-019-R-J1-PDC tumor spheroid viability
Test: Anticancer human tumor 171881-019-R-J1-PDC patient-derived invasive breast carcinoma cell line growth inhibition [PI3K]
Conditions: spheroids with HUVEC and MSC; for IC50: curve of first compound; for viability, T/C: stronger effect = lower value
Method in brief: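 Targeted small molecules plus PI3K inhibitors, half-log dose series from Cmax (default top 10 microM), were applied to heterotypic spheroids of cancer cells with HUVEC and MSCs. Viability indicated growth inhibition.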

[1] = second compound 0.00316 µM, first compound 0.0316 µM
[2] = second compound 0.00316 µM, first compound 0.1 µM
[3] = second compound 0.00316 µM, first compound 0.316 µM
[4] = second compound 0.00316 µM, first compound 1 µM
[5] = second compound 0.00316 µM, first compound 3.16 µM
[6] = second compound 0.00316 µM, first compound 10 µM
[7] = second compound 0.01 µM, first compound 0.0316 µM
[8] = second compound 0.01 µM, first compound 0.1 µM
[9] = second compound 0.01 µM, first compound 0.316 µM
[10] = second compound 0.01 µM, first compound 1 µM
[11] = second compound 0.01 µM, first compound 3.16 µM
[12] = second compound 0.01 µM, first compound 10 µM
[13] = second compound 0.0316 µM, first compound 0.0316 µM
[14] = second compound 0.0316 µM, first compound 0.1 µM
[15] = second compound 0.0316 µM, first compound 0.316 µM
[16] = second compound 0.0316 µM, first compound 1 µM
[17] = second compound 0.0316 µM, first compound 3.16 µM
[18] = second compound 0.0316 µM, first compound 10 µM
[19] = second compound 0.1 µM, first compound 0.0316 µM
[20] = second compound 0.1 µM, first compound 0.1 µM
[21] = second compound 0.1 µM, first compound 0.316 µM
[22] = second compound 0.1 µM, first compound 1 µM
[23] = second compound 0.1 µM, first compound 3.16 µM
[24] = second compound 0.1 µM, first compound 10 µM
[25] = second compound 0.316 µM, first compound 0.0316 µM
[26] = second compound 0.316 µM, first compound 0.1 µM
[27] = second compound 0.316 µM, first compound 0.316 µM
[28] = second compound 0.316 µM, first compound 1 µM
[29] = second compound 0.316 µM, first compound 3.16 µM
[30] = second compound 0.316 µM, first compound 10 µM
[31] = second compound 1 µM, first compound 0.0316 µM
[32] = second compound 1 µM, first compound 0.1 µM
[33] = second compound 1 µM, first compound 0.316 µM
[34] = second compound 1 µM, first compound 1 µM
[35] = second compound 1 µM, first compound 3.16 µM
[36] = second compound 1 µM, first compound 10 µM
[37] = second compound 3.16 µM, first compound 0.0316 µM
[38] = second compound 3.16 µM, first compound 0.1 µM
[39] = second compound 3.16 µM, first compound 0.316 µM
[40] = second compound 3.16 µM, first compound 1 µM
[41] = second compound 3.16 µM, first compound 3.16 µM
[42] = second compound 3.16 µM, first compound 10 µM
[43] = second compound 10 µM, first compound 0.0316 µM
[44] = second compound 10 µM, first compound 0.1 µM
[45] = second compound 10 µM, first compound 0.316 µM
[46] = second compound 10 µM, first compound 1 µM
[47] = second compound 10 µM, first compound 3.16 µM
[48] = second compound 10 µM, first compound 10 µM
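Further: spheroids exposed to compound for 7 days before viability read.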
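Wherever viability, T/C is given: 100% = DMSO vehicle-treated spheroids.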

- IC50 (second compound 0.00316 µM): 5310 nM
- IC50 (second compound 0.01 µM): < 31.6 nM
- IC50 (second compound 0.0316 µM): < 31.6 nM
- IC50 (second compound 0.1 µM): < 31.6 nM
- IC50 (second compound 0.316 µM): < 31.6 nM
- IC50 (second compound 1 µM): < 31.6 nM
Compound: C=CC(=O)N1CCN(c2nc(=O)n(-c3c(C)ccnc3C(C)C)c3nc(-c4c(O)cccc4F)c(F)cc23)C(C)C1 (stereo not drawn) + COc1c(OCCCN2CCOCC2)ccc2c3n(c(=NC(=O)c4cnc(N)nc4)nc12)CCN3
- viability, T/C [1]: 63.5%
- viability, T/C [2]: 70%
- viability, T/C [3]: 50%
- viability, T/C [4]: 66.9%
- viability, T/C [5]: 60.3%
- viability, T/C [6]: 36.9%
- viability, T/C [7]: 45.4%
- viability, T/C [8]: 49.9%
- viability, T/C [9]: 49%
- viability, T/C [10]: 51.3%
- viability, T/C [11]: 43.8%
- viability, T/C [12]: 28.4%
- viability, T/C [13]: 24.2%
- viability, T/C [14]: 25.5%
- viability, T/C [15]: 24.3%
- viability, T/C [16]: 26.2%
- viability, T/C [17]: 25.6%
- viability, T/C [18]: 13.3%
- viability, T/C [19]: 7.99%
- viability, T/C [20]: 8.18%
- viability, T/C [21]: 9.55%
- viability, T/C [22]: 9.16%
- viability, T/C [23]: 8.78%
- viability, T/C [24]: 4.72%
- viability, T/C [25]: 1.86%
- viability, T/C [26]: 1.72%
- viability, T/C [27]: 2.68%
- viability, T/C [28]: 2.25%
- viability, T/C [29]: 2.28%
- viability, T/C [30]: 2.01%
- viability, T/C [31]: 0.96%
- viability, T/C [32]: 0.93%
- viability, T/C [33]: 1.05%
- viability, T/C [34]: 1.41%
- viability, T/C [35]: 1.76%
- viability, T/C [36]: 3.63%

- IC50 (second compound 0.0316 µM): 388 nM
- IC50 (second compound 0.1 µM): 293 nM
- IC50 (second compound 0.316 µM): 393 nM
- IC50 (second compound 1 µM): 401 nM
- IC50 (second compound 3.16 µM): 357 nM
- IC50 (second compound 10 µM): 150 nM
Compound: CC(C)NCC(C(=O)N1CCN(c2ncnc3c2C(C)CC3O)CC1)c1ccc(Cl)cc1 (stereo not drawn) + CC(Nc1ncnc2nc[nH]c12)c1cc2cccc(Cl)c2c(=O)n1-c1ccccc1
- viability, T/C [13]: 96.1%
- viability, T/C [14]: 83.8%
- viability, T/C [15]: 54.5%
- viability, T/C [16]: 27.6%
- viability, T/C [17]: 14.6%
- viability, T/C [18]: 11.4%
- viability, T/C [19]: 97.6%
- viability, T/C [20]: 73.1%
- viability, T/C [21]: 48.4%
- viability, T/C [22]: 29.4%
- viability, T/C [23]: 14.6%
- viability, T/C [24]: 10.1%
- viability, T/C [25]: 80%
- viability, T/C [26]: 82.8%
- viability, T/C [27]: 50.9%
- viability, T/C [28]: 30%
- viability, T/C [29]: 14.4%
- viability, T/C [30]: 9.02%
- viability, T/C [31]: 93.2%
- viability, T/C [32]: 81%
- viability, T/C [33]: 55.9%
- viability, T/C [34]: 28%
- viability, T/C [35]: 12.5%
- viability, T/C [36]: 8.65%
- viability, T/C [37]: 78.6%
- viability, T/C [38]: 75.1%
- viability, T/C [39]: 51.2%
- viability, T/C [40]: 27.1%
- viability, T/C [41]: 11.5%
- viability, T/C [42]: 8.08%
- viability, T/C [43]: 57%
- viability, T/C [44]: 53.6%
- viability, T/C [45]: 43%
- viability, T/C [46]: 21.6%
- viability, T/C [47]: 9.56%
- viability, T/C [48]: 5.96%

- IC50 (second compound 0.0316 µM): > 10000 nM
- IC50 (second compound 0.1 µM): > 10000 nM
- IC50 (second compound 0.316 µM): 4660 nM
- IC50 (second compound 1 µM): < 31.6 nM
- IC50 (second compound 3.16 µM): < 31.6 nM
- IC50 (second compound 10 µM): < 31.6 nM
Compound: CNC(=O)c1ccc(N2C(=S)N(c3ccc(C#N)c(C(F)(F)F)c3)C(=O)C2(C)C)cc1F + Cc1nc(NC(=O)N2CCCC2C(N)=O)sc1-c1ccnc(C(C)(C)C(F)(F)F)c1
- viability, T/C [13]: 90.4%
- viability, T/C [14]: 81.5%
- viability, T/C [15]: 84.4%
- viability, T/C [16]: 87.7%
- viability, T/C [17]: 86%
- viability, T/C [18]: 69.7%
- viability, T/C [19]: 79%
- viability, T/C [20]: 77%
- viability, T/C [21]: 82.9%
- viability, T/C [22]: 66.4%
- viability, T/C [23]: 74.6%
- viability, T/C [24]: 66.1%
- viability, T/C [25]: 58.6%
- viability, T/C [26]: 50.2%
- viability, T/C [27]: 50.3%
- viability, T/C [28]: 52.5%
- viability, T/C [29]: 57.2%
- viability, T/C [30]: 45.1%
- viability, T/C [31]: 31.2%
- viability, T/C [32]: 31.1%
- viability, T/C [33]: 31.8%
- viability, T/C [34]: 30.9%
- viability, T/C [35]: 32.7%
- viability, T/C [36]: 27.7%
- viability, T/C [37]: 13.2%
- viability, T/C [38]: 12.7%
- viability, T/C [39]: 13.1%
- viability, T/C [40]: 12.6%
- viability, T/C [41]: 12.5%
- viability, T/C [42]: 11.1%
- viability, T/C [43]: 3.32%
- viability, T/C [44]: 3.53%
- viability, T/C [45]: 3.59%
- viability, T/C [46]: 3.51%
- viability, T/C [47]: 3.82%
- viability, T/C [48]: 3.48%

- IC50 (second compound 0.00316 µM): 200 nM
- IC50 (second compound 0.01 µM): < 31.6 nM
- IC50 (second compound 0.0316 µM): < 31.6 nM
- IC50 (second compound 0.1 µM): < 31.6 nM
- IC50 (second compound 0.316 µM): < 31.6 nM
- IC50 (second compound 1 µM): < 31.6 nM
Compound: CC(C)NCC(C(=O)N1CCN(c2ncnc3c2C(C)CC3O)CC1)c1ccc(Cl)cc1 (stereo not drawn) + COc1c(OCCCN2CCOCC2)ccc2c3n(c(=NC(=O)c4cnc(N)nc4)nc12)CCN3
- viability, T/C [1]: 63.8%
- viability, T/C [2]: 57%
- viability, T/C [3]: 44.8%
- viability, T/C [4]: 27.6%
- viability, T/C [5]: 11.6%
- viability, T/C [6]: 8.17%
- viability, T/C [7]: 48.5%
- viability, T/C [8]: 47%
- viability, T/C [9]: 36.4%
- viability, T/C [10]: 24.1%
- viability, T/C [11]: 12.4%
- viability, T/C [12]: 8.98%
- viability, T/C [13]: 25%
- viability, T/C [14]: 24.9%
- viability, T/C [15]: 25.8%
- viability, T/C [16]: 14.4%
- viability, T/C [17]: 8.88%
- viability, T/C [18]: 5.68%
- viability, T/C [19]: 7.43%
- viability, T/C [20]: 8.22%
- viability, T/C [21]: 8.03%
- viability, T/C [22]: 6.41%
- viability, T/C [23]: 5.14%
- viability, T/C [24]: 3.1%
- viability, T/C [25]: 1.9%
- viability, T/C [26]: 2.03%
- viability, T/C [27]: 2.26%
- viability, T/C [28]: 2.16%
- viability, T/C [29]: 1.57%
- viability, T/C [30]: 1.13%
- viability, T/C [31]: 0.99%
- viability, T/C [32]: 1.4%
- viability, T/C [33]: 1.49%
- viability, T/C [34]: 1.35%
- viability, T/C [35]: 1.05%
- viability, T/C [36]: 0.68%
